In ChEMBL document CHEMBL5303573, “Mapping human microbiome drug metabolism by gut bacteria and their genes” (Nature, 2019):

Experiments:
[1] = The drug is tested on Anaerococcus hydrogenalis strain: DSM7454 for biotransformation. The drug concentrations were measured before and after a 12-h incubation by liquid-chromatography-coupled mass spectrometry (LC–MS); conditions: 2 µM
[2] = anaerostipes sp., 12 h, 2 µM
Description: The drug is tested on Anaerostipes sp. strain: fecal isolate for biotransformation. The drug concentrations were measured before and after a 12-h incubation by liquid-chromatography-coupled mass spectrometry (LC–MS)

[3] = The drug is tested on Bacteroides uniformis strain: ATCC8492 for biotransformation. The drug concentrations were measured before and after a 12-h incubation by liquid-chromatography-coupled mass spectrometry (LC–MS); conditions: 2 µM
[4] = bacteroides fragilis, 12 h, 2 µM
Description: The drug is tested on Bacteroides fragilis strain: DS-208 for biotransformation. The drug concentrations were measured before and after a 12-h incubation by liquid-chromatography-coupled mass spectrometry (LC–MS)

[5] = The drug is tested on Bacteroides finegoldii strain: DSM17565 for biotransformation. The drug concentrations were measured before and after a 12-h incubation by liquid-chromatography-coupled mass spectrometry (LC–MS); conditions: 2 µM
[6] = The drug is tested on Clostridium sp. strain: fecal isolate for biotransformation. The drug concentrations were measured before and after a 12-h incubation by liquid-chromatography-coupled mass spectrometry (LC–MS); conditions: 2 µM
[7] = The drug is tested on Anaerotruncus colihominis strain: DSM17241 for biotransformation. The drug concentrations were measured before and after a 12-h incubation by liquid-chromatography-coupled mass spectrometry (LC–MS); conditions: 2 µM

Compound: CN1C(=O)CCS(=O)(=O)C1c1ccc(Cl)cc1 (stereo not given) [CHLORMEZANONE]
- Bacterial Biotransformation [1]: Compound NOT metabolized
- Bacterial Biotransformation [2]: Compound NOT metabolized
- Bacterial Biotransformation [3]: Compound NOT metabolized
- Bacterial Biotransformation [4]: Compound NOT metabolized
- Bacterial Biotransformation [5]: Compound NOT metabolized
- Bacterial Biotransformation [6]: Compound metabolized
- Bacterial Biotransformation [7]: Compound NOT metabolized

Compound: CC(C)(C)NCC(O)c1cc(Cl)c(N)c(Cl)c1 (stereo not given) [CLENBUTEROL]
- Bacterial Biotransformation [1]: Compound NOT metabolized
- Bacterial Biotransformation [2]: Compound NOT metabolized
- Bacterial Biotransformation [3]: Compound NOT metabolized
- Bacterial Biotransformation [4]: Compound NOT metabolized
- Bacterial Biotransformation [5]: Compound NOT metabolized
- Bacterial Biotransformation [6]: Compound NOT metabolized
- Bacterial Biotransformation [7]: Compound NOT metabolized

Compound: C[N+]12CCC(CC1)C(OC(=O)C(O)(c1ccccc1)c1ccccc1)C2.[Br-] (stereo not given) [CLIDINIUM BROMIDE]
- Bacterial Biotransformation [1]: Compound NOT metabolized
- Bacterial Biotransformation [2]: Compound NOT metabolized
- Bacterial Biotransformation [3]: Compound NOT metabolized
- Bacterial Biotransformation [4]: Compound NOT metabolized
- Bacterial Biotransformation [5]: Compound NOT metabolized
- Bacterial Biotransformation [6]: Compound NOT metabolized
- Bacterial Biotransformation [7]: Compound NOT metabolized

Compound: CCOc1ccc2nc(S(N)(=O)=O)sc2c1 [ETHOXZOLAMIDE]
- Bacterial Biotransformation [1]: Compound metabolized
- Bacterial Biotransformation [2]: Compound metabolized
- Bacterial Biotransformation [3]: Compound metabolized
- Bacterial Biotransformation [4]: Compound NOT metabolized
- Bacterial Biotransformation [5]: Compound metabolized
- Bacterial Biotransformation [6]: Compound metabolized
- Bacterial Biotransformation [7]: Compound metabolized

Compound: CNCCC(Oc1ccc(C(F)(F)F)cc1)c1ccccc1 (stereo not given) [FLUOXETINE]
- Bacterial Biotransformation [1]: Compound NOT metabolized
- Bacterial Biotransformation [2]: Compound metabolized
- Bacterial Biotransformation [3]: Compound metabolized
- Bacterial Biotransformation [4]: Compound metabolized
- Bacterial Biotransformation [5]: Compound NOT metabolized
- Bacterial Biotransformation [6]: Compound metabolized
- Bacterial Biotransformation [7]: Compound NOT metabolized

Compound: CC(Oc1c(Cl)cccc1Cl)C1=NCCN1 (stereo not given) [LOFEXIDINE]
- Bacterial Biotransformation [1]: Compound metabolized
- Bacterial Biotransformation [2]: Compound metabolized
- Bacterial Biotransformation [3]: Compound metabolized
- Bacterial Biotransformation [4]: Compound NOT metabolized
- Bacterial Biotransformation [5]: Compound metabolized
- Bacterial Biotransformation [6]: Compound metabolized
- Bacterial Biotransformation [7]: Compound metabolized

Compound: CC[C@@H](CO)NC(=O)[C@@H]1C=C2c3cccc4c3c(cn4C)C[C@H]2N(C)C1.O=C(O)/C=C\C(=O)O [METHYSERGIDE MALEATE]
- Bacterial Biotransformation [1]: Compound metabolized
- Bacterial Biotransformation [2]: Compound metabolized
- Bacterial Biotransformation [3]: Compound metabolized
- Bacterial Biotransformation [4]: Compound metabolized
- Bacterial Biotransformation [5]: Compound metabolized
- Bacterial Biotransformation [6]: Compound metabolized
- Bacterial Biotransformation [7]: Compound metabolized

Compound: CC[C@H](C)C(=O)O[C@H]1CCC=C2C=C[C@H](C)[C@H](CC[C@@H]3C[C@@H](O)CC(=O)O3)[C@H]21 [MEVASTATIN]
- Bacterial Biotransformation [1]: Compound metabolized
- Bacterial Biotransformation [2]: Compound metabolized
- Bacterial Biotransformation [3]: Compound metabolized
- Bacterial Biotransformation [4]: Compound metabolized
- Bacterial Biotransformation [5]: Compound metabolized
- Bacterial Biotransformation [6]: Compound metabolized
- Bacterial Biotransformation [7]: Compound metabolized

Compound: CC#C[C@]1(O)CC[C@H]2[C@@H]3CCC4=CC(=O)CCC4=C3[C@@H](c3ccc(N(C)C)cc3)C[C@@]21C [MIFEPRISTONE]
- Bacterial Biotransformation [1]: Compound NOT metabolized
- Bacterial Biotransformation [2]: Compound NOT metabolized
- Bacterial Biotransformation [3]: Compound NOT metabolized
- Bacterial Biotransformation [4]: Compound NOT metabolized
- Bacterial Biotransformation [5]: Compound NOT metabolized
- Bacterial Biotransformation [6]: Compound metabolized
- Bacterial Biotransformation [7]: Compound NOT metabolized

Compound: COc1c(C)c2c(c(O)c1C/C=C(\C)CCC(=O)OCCN1CCOCC1)C(=O)OC2 [MYCOPHENOLATE MOFETIL]
- Bacterial Biotransformation [1]: Compound metabolized
- Bacterial Biotransformation [2]: Compound metabolized
- Bacterial Biotransformation [3]: Compound metabolized
- Bacterial Biotransformation [4]: Compound metabolized
- Bacterial Biotransformation [5]: Compound metabolized
- Bacterial Biotransformation [6]: Compound metabolized
- Bacterial Biotransformation [7]: Compound metabolized
